Columns and labels:
Format in all cases: in vivo
[1] = system: Amaranthus retroflexus (AMARE); test: Biological Example 1 glasshouse screen, pre-emergence herbicidal activity; settings: application rate 250 g/ha, evaluated after 13 days
Protocol: (§1) Seeds of a variety of test species were sown in standard soil in pots. After cultivation for one day (pre-emergence) or after 8 days cultivation (post-emergence) under controlled conditions in a glasshouse (at 24/16°C., day/night; 14 hours light; 65% humidity), the plants were sprayed with an aqueous spray solution derived from the formulation of the “technical”(i.e. unformulated) active ingredient in acetone/water (50:50) solution containing 0.5% Tween 20 (polyoxyethylene sorbitan monolaurate, CAS Registry Number 9005-64-5). The test plants were then grown in a glasshouse under controlled conditions in a glasshouse (at 24/16°C., day/night; 14 hours light; 65% humidity) and watered twice daily. After 13 days for pre- or post-emergence, the test was evaluated visually, and an assessed percentage phytotoxicity score given for each herbicidal application on each plant/weed species (with 100%=total damage to plant; 0%=no damage to plant).
(§2) Test plants: Alopecurus myosuroides (ALOMY), Setaria faberi (SETFA), Echinochloa crus-galli (ECHCG), Solanum nigrum (SOLNI), Amaranthus retroflexus (AMARE) and Ipomoea hederacea (IPOHE). ALOMY, SETFA and ECHCG are grassy monocotyledonous weeds. SOLNI, AMARE and IPOHE are dicotyledonous (broadleaved) weeds.

[2] = system: Ipomoea hederacea (IPOHE); test: as above; settings: application rate 250 g/ha, evaluated after 13 days
Protocol: as §1, §2

[3] = system: Setaria faberi (SETFA); test: as above; settings: application rate 250 g/ha, evaluated after 13 days
Protocol: as §1, §2

[4] = system: Solanum nigrum (SOLNI); test: as above; settings: application rate 250 g/ha, evaluated after 13 days
Protocol: as §1, §2

[5] = system: Alopecurus myosuroides (ALOMY); test: as above; settings: 312 h, application rate 250 g/ha, evaluated after 13 days, read-out: ALOMY percentage phytotoxicity
In short: (§3)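 Read-out: visual percentage phytotoxicity at 13 days, 0% no damage to 100% total damage. Spray solution of unformulated compound in 50:50 acetone/water plus 0.5% Tween 20, applied to potted plants one day after sowing (pre) or after 8 days' growth (post).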

[6] = system: Echinochloa crus-galli (ECHCG); test: as above; settings: 312 h, application rate 250 g/ha, evaluated after 13 days, read-out: ECHCG percentage phytotoxicity
In short: as §3

[7] = system: Amaranthus retroflexus (AMARE); test: Biological Example 1 glasshouse screen, post-emergence herbicidal activity; settings: application rate 250 g/ha, evaluated after 13 days
Protocol: as §1, §2

[8] = system: Ipomoea hederacea (IPOHE); test: as above; settings: application rate 250 g/ha, evaluated after 13 days
Protocol: as §1, §2

[9] = system: Setaria faberi (SETFA); test: as above; settings: application rate 250 g/ha, evaluated after 13 days
Protocol: as §1, §2

[10] = system: Solanum nigrum (SOLNI); test: as above; settings: application rate 250 g/ha, evaluated after 13 days
Protocol: as §1, §2

[11] = system: Alopecurus myosuroides (ALOMY); test: as above; settings: 312 h, application rate 250 g/ha, evaluated after 13 days, read-out: ALOMY percentage phytotoxicity
In short: as §3

[12] = system: Echinochloa crus-galli (ECHCG); test: as above; settings: 312 h, application rate 250 g/ha, evaluated after 13 days, read-out: ECHCG percentage phytotoxicity
In short: as §3

[13] = system: Alopecurus myosuroides (ALOMY); test: Biological Example 2 post-emergence herbicidal activity (comparative data); settings: 312 h, read-out: ALOMY percentage phytotoxicity; for pest or weed control at 15.625 g/ha: 15.625 g/ha application rate; for pest or weed control at 62.5 g/ha: 62.5 g/ha application rate
In short: (§4)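 Post-emergence spray after 8 days' glasshouse growth (24/16°C day/night, 14 h light, 65% humidity), using technical active ingredient in acetone/water (50:50) with 0.5% Tween 20. Visual phytotoxicity scored 13 days later, 0% = no damage to 100% = total damage.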

[14] = system: Echinochloa crus-galli (ECHCG); test: as above; settings: 312 h, read-out: ECHCG percentage phytotoxicity; for pest or weed control at 15.625 g/ha: 15.625 g/ha application rate; for pest or weed control at 62.5 g/ha: 62.5 g/ha application rate
In short: as §4

[15] = system: Setaria faberi (SETFA); test: as above
In short: as §4

[16] = system: Triticum aestivum, wheat (TRZAW); test: Biological Example 3 glasshouse screen, post-emergence, phytotoxicity on wheat; settings: 360 h, 15 DAA, no safener, read-out: TRZAW percentage phytotoxicity
In short: (§5)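 Post-em spray, 12 d after sowing; a.i.:IF50 1:20 in acetone, diluted in water + 0.2% v/v X-77; no cloquintocet-mexyl. Glasshouse 24/18 or 20/16°C d/n, 16 h light, 65% RH, watered twice daily. Visual % phytotox at 15 DAA.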

[17] = system: Alopecurus myosuroides, blackgrass (ALOMY); test: Biological Example 3 glasshouse screen, post-emergence herbicidal activity; settings: 360 h, 15 DAA, no safener, read-out: ALOMY percentage phytotoxicity
In short: as §5

[18] = system: Avena fatua, wild oats (AVEFA); test: as above; settings: 360 h, 15 DAA, no safener, read-out: AVEFA percentage phytotoxicity
In short: as §5

[19] = system: Echinochloa crus galli, barnyardgrass (ECHCG); test: as above; settings: 360 h, 15 DAA, no safener, read-out: ECHCG percentage phytotoxicity
In short: as §5

[20] = system: Lolium perenne, perennial ryegrass (LOLPE); test: as above; settings: 360 h, 15 DAA, no safener, read-out: LOLPE percentage phytotoxicity
In short: as §5

SMILES	AMARE percentage phytotoxicity [1]	IPOHE percentage phytotoxicity [2]	SEFTA percentage phytotoxicity [3]	SOLNI percentage phytotoxicity [4]	pest or weed control at 250 g/ha [5]	pest or weed control at 250 g/ha [6]	AMARE percentage phytotoxicity [7]	IPOHE percentage phytotoxicity [8]	SEFTA percentage phytotoxicity [9]	SOLNI percentage phytotoxicity [10]	pest or weed control at 250 g/ha [11]	pest or weed control at 250 g/ha [12]	pest or weed control at 15.625 g/ha [13]	pest or weed control at 62.5 g/ha [13]	pest or weed control at 15.625 g/ha [14]	pest or weed control at 62.5 g/ha [14]	SETFA percentage phytotoxicity ([15]; 15.625 g/ha application rate)	SETFA percentage phytotoxicity ([15]; 62.5 g/ha application rate)	also measured
CC#Cc1cc(C)c(C2C(=O)C3C(C2=O)[C@H]2CC[C@@H]3O2)c(C)c1 (mixture of isomers) [Compound A-18, (1RS,2SR,6RS,7SR)-4-(2,6-dimethyl-4-prop-1-ynylphenyl)-10-oxatricyclo[5.2.1.0^2,6]decane-3,5-dione]	100%	80%	100%	80%	100%	100%	30%	80%	100%	80%	100%	100%	90%	100%	100%	100%	70%	90%	pest or weed control at 8 g/ha ([16]; application rate 8 g/ha): 40%; pest or weed control at 8 g/ha ([17]; application rate 8 g/ha): 70%; pest or weed control at 8 g/ha ([18]; application rate 8 g/ha): 30%; pest or weed control at 8 g/ha ([19]; application rate 8 g/ha): 80%; pest or weed control at 8 g/ha ([20]; application rate 8 g/ha): 80%
CC#Cc1cc(C)c(C2=C(O)CCC2=O)c(C)c1 [Compound A-1, 2-(2,6-Dimethyl-4-prop-1-ynylphenyl)cyclopentane-1,3-dione]	0%	0%	80%	0%	100%	100%	0%	30%	70%	10%	90%	100%	20%	80%	70%	100%	40%	60%	pest or weed control at 125 g/ha ([16]; application rate 125 g/ha): 40%; pest or weed control at 125 g/ha ([17]; application rate 125 g/ha): 70%; pest or weed control at 125 g/ha ([18]; application rate 125 g/ha): 0%; pest or weed control at 125 g/ha ([19]; application rate 125 g/ha): 80%; pest or weed control at 125 g/ha ([20]; application rate 125 g/ha): 50%

Source: patent publication US9107415B2, “2-(substituted-phenyl)-cyclopentane-1,3-dione compounds, and derivatives thereof” (Syngenta Limited, priority 2011, dated 2015)
